Results as given in patent publication US20160271090A1, “FRATAXIN ENHANCER” (TOKYO UNIVERSITY OF AGRICULTURE, priority 2013, published 2016).

Test system: frataxin protein in human normal fibroblast strain WI-38
Test: Western blot of frataxin protein in WI-38 cells cultured with ALA
Assay type: cell-based
Settings: ALA 2 mM for 2 hours in DMEM without FBS, then 24 hours in DMEM with 10% FBS, compared to Sample 2 (medium without ALA)
Method: • (i) Human normal fibroblast strain WI-38 was cultured in Dulbecco's modified Eagle medium (DMEM) comprising 10% fetal bovine serum (FBS) under 5% CO2. (ii) 5-Aminolevulinic acid (ALA) was added at a final concentration of 2 mM to DMEM without FBS, and cells of (i) were cultured in said medium at 37° C. for 2 hours to allow ALA to be incorporated. (iii) Then, the cells were transferred to DMEM containing 10% FBS and cultured at 37° C. for 24 hours. (iv) The cells were collected by trypsin treatment, washed with phosphate buffered saline (PBS), and then suspended in SDS sample buffer (50 mM Tris-HCl, pH6.8, 2% SDS, 2.5%-mercaptoethanol, 10% glycerol, and 0.01% bromophenol blue), and heated at 100° C. for 5 minutes to allow lysis. […] In this Example, the said cell lysate is referred to as “Sample 2.” Samples 1 and 2 were subjected to 12% SDS-polyacrylamide electrophoresis, and Western blot analysis employing an anti-human frataxin antibody (from Santa Cruz Biotechnology, cat. #sc-25820) and an HRP-labeled anti-rabbit IgG secondary antibody (from GE Healthcare, cat. #N[MUT]) was performed by conventional means. […]

## NCC(=O)CCC(=O)O [ALA, 5-aminolevulinic acid]
  amount of frataxin protein (Western blot, FIG. 1): clear increase
